Measured values reported in paper PMC3665828 (PLoS ONE, 2013).
“Also recorded” adds a separate entry of the source. Like-named read-outs stand apart in the source and are kept apart here. Starred links: 1 amine or outer side, 2 acyl side, 3 side chain; linkers in the order of their positions; H or OH if unused. Residues, ends and D or L forms follow the SMILES beside them. No end group written: not given here. CO = O=C([*:1])[*:2]

Tests used:
[1] = rat blood; conditions: cited from earlier work
[2] = system: angiotensin converting enzyme-1 (ACE-1); assay: 0.25 µg recombinant human ACE-1 in 100 µl angiotensin solution; conditions: up to 8 h
[3] = immobilized human plasma proteins (CNBr-activated Sepharosebeads); conditions: 37°C, up to 24 h
[4] = system: recombinant human aminopeptidase N (APN); assay: 0.25 µg recombinant human aminopeptidase N in 100 µl angiotensin solution; conditions: up to 24 h
[5] = system: angiotensin-generating proteases of immobilized human plasma proteins; assay: Incubation of immobilized human plasma proteins with ANG-1-10 in the presence of protease inhibitors (SRM-MS); type: biochemical
Procedure: The control was incubated with immobilized plasma proteins in the absence of inhibitors. The incubation with immobilized plasma proteins was carried out as described in “Incubation of immobilized plasma proteins”. The incubation was started by addition of ANG-1-10 to a final concentration of 10^−5 M to the immobilized plasma proteins.
The reaction products were analyzed by SRM-MS after 6 h (Figure S6).
Supplementary file pone.0064027.s006.tif: Figure S6 Processing of ANG-1-10 by immobilized human plasma proteases in the presence and abscence of protease inhibitors. […] Right y-axis: AUC of ANG-2-10 and ANG-3-10 after incubation in presence of EDTA. (TIF) Click here for additional data file.

[6] = system: anti ANG-1-10 antibody (rabbit polyclonal); conditions: rabbit polyclonal antibody of the kit; ref Fluorescent EIA Kit, phoenix pharmaceuticals; cited from earlier work
Procedure: The RP-HPLC plasma peptide fractionations corresponding to the retention times of the synthetic angiotensin peptides were analyzed by an immuno-fluorescence assay that was originally manufactured for the quantification of ANG-1-10.

[7] = system: immobilized human plasma proteins; assay: Incubation of angiotensin peptides with immobilized human plasma proteins; type: in vitro ADME
Procedure: For incubation experiments human venous citrate blood (ratio 1∶9, blood to sodium citrate 3,13% (Eifelfango)) was obtained by catheterization from the cubital vein of a healthy volunteer (blood pressure: normal, <120/80 mmHg).
Analysis of the reaction by SRM was performed on a LC-ESI-QQQ-MS system. Exoproteolytic processing of these angiotensin peptides requires the presence of plasma proteases which are able to cognate and cleave the intermediate angiotensin peptides. […] When ANG-5-10 was incubated in presence of human immobilized plasma proteins time the dependent generation of ANG-6-10 was detected. After an incubation period of 8 h nearly no angiotensin peptides were detected in any of the reaction mixtures.
Dry Sepharosebeads® were swollen in 10 ml 0.1 mM hydrochloric acid/ HPLC (high pressure liquid chromatography)-grade water for 30 min on a rotating shaker. Subsequently they were washed repeatedly with HPLC-grade water (Lichrosolve, Merck). Afterwards Sepharosebeads® were equilibrated by multiple washing steps with protein coupling buffer (100 mM NaHCO3, 500 mM NaCl, pH 8,3). For protein immobilization plasma samples with a volume of 40 µl were mixed with coupling buffer in a ratio of 1:6 and mixed with the prepared Sepharosebeads® followed by incubation for 2h on a rotating shaker (room temperature). As a control heat inactivated plasma (boiled for 5 min) was immobilized. A volume of 40 µl swollen Sepharosebeads® was used per sample. After protein immobilization the Sepharosebeads® were washed three times with HPLC-grade water. Free binding sites of the Sepharosebeads® were saturated by incubation with blocking buffer (100 mM NaHCO3,500 mM NaCl, pH 8,3, 1 M Glycine, pH 8,3) for 2h on a rotating shaker (room temperature).

[8] = system: immobilized mouse plasma proteins
Procedure: (§2) Heparinized (10 IU/ml) mouse and rat blood (200 µl) was obtained from the caudal vein. Plasma was isolated from all blood samples by centrifugation (4–16 K, Sigma) 4000×g for 15 min.
(§3) For the immobilization of plasma proteins CNBr-activated Sepharosebeads® 6MB (GE Healthcare) were used. Protein immobilization was perfomed as described in the product information sheet for CNBr-activated Sepharosebeads® (Sigma Aldrich) except for modifications described in the supporting information part “immobilization of plasma proteins” (Methods S1).
Incubation of immobilized plasma proteins and the control samples (glycine derivatized Sepharosebeads® without immobilized proteins and heat inactivated immobilized plasma proteins for the incubation with ANG-1-10) was started by addition of the individual angiotensin peptides (final concentration of 10^−5 M, solved in HPLC-grade water, Lichrosolve, Merck) to the beads. Incubation was carried out at 37°C on a rotating shaker. […]
To investigate the processing of ANG-1-10 by human plasma proteases we used a mass spectrometry based enzyme screening (MES) system [20]. Therefore immobilized murine and human plasma proteins were incubated with ANG-1-10 and the reaction products were analyzed by mass spectrometry. […]
ANG-1-10 (10^−5 M) was incubated with immobilized mouse plasma proteins. Reaction products were detected by MALDI-MS after 0 h, 3 h, 4 h and 8 h. […]

[9] = system: non-immobilized human plasma
Procedure: From this blood sample an aliquot of 10 ml was saved for the incubation experiments. The rest of the blood sample was immediately mixed with protease inhibitor cocktail (including 2 mM AEBSF, 0.3 µM aprotinin, 130 µM bestatin, 1 mM EDTA, 14 µM E-64 and 1 µM leupeptin (Sigma-Aldrich)) in a ratio of 1∶50.
For incubation of non-immobilized plasma a reaction volume of 200 µl non-immobilized undiluted and diluted plasma (1∶100 in HPLC-grade water) was used per sample. Incubation was started by addition of ANG-1-10 to a final concentration of 10^−5 M. Incubation was carried out at 37°C on a rotating shaker. As a control 200 µl of a 10^−5 M ANG-1-10 solution without plasma was incubated under the same conditions.
The reaction products derived from the incubation of non-immobilized plasma proteins were desalted by solid phase extraction (Hydophilic lipophilic balance (HLB) µElution plate, Waters). The HLB material was equilibrated by three washing steps with 0.2% formic acid/HPLC-grade water by centrifugation of the plate for 1 min with 500×g. Next, the sample was applied to the HLB material and centrifuged for 2 min with 200×g. The flow-through was discarded and unbound molecules were removed by washing the HLB material 3 times with 0.2% formic acid/HPLC-grade water by centrifugation of the plate for 2 min with 500×g. […]

[10] = system: immobilized rat plasma proteins
Procedure: as §2, §3
Incubation of immobilized plasma proteins and the control samples (glycine derivatized Sepharosebeads® without immobilized proteins and heat inactivated immobilized plasma proteins for the incubation with ANG-1-10) was started by addition of the individual angiotensin peptides (final concentration of 10^−5 M, solved in HPLC-grade water, Lichrosolve, Merck) to the beads. Incubation was carried out at 37°C on a rotating shaker. The final reaction volume of the samples was 30 µl.
Identification of the reaction products was done by comparison of the m/z values of the peaks in the mass spectra with the theoretical m/z values (Table S2) of possible angiotensin peptide products.
ANG-1-10 (10^−5 M) was incubated with immobilized rat plasma proteins. Reaction products were detected by MALDI-MS after 0 h, 1 h, 3 h and 8 h.

[11] = target: recombinant human ACE-1 (Homo sapiens, UniProt P12821); assay: Incubation of angiotensin peptides with recombinant ACE-1 (MALDI-MS); conditions: peptide 10^−5 M, 0.25 µg recombinant human ACE-1, MALDI-MS after 8 h
Chain of recombinant human ACE-1 (P12821 30-1306): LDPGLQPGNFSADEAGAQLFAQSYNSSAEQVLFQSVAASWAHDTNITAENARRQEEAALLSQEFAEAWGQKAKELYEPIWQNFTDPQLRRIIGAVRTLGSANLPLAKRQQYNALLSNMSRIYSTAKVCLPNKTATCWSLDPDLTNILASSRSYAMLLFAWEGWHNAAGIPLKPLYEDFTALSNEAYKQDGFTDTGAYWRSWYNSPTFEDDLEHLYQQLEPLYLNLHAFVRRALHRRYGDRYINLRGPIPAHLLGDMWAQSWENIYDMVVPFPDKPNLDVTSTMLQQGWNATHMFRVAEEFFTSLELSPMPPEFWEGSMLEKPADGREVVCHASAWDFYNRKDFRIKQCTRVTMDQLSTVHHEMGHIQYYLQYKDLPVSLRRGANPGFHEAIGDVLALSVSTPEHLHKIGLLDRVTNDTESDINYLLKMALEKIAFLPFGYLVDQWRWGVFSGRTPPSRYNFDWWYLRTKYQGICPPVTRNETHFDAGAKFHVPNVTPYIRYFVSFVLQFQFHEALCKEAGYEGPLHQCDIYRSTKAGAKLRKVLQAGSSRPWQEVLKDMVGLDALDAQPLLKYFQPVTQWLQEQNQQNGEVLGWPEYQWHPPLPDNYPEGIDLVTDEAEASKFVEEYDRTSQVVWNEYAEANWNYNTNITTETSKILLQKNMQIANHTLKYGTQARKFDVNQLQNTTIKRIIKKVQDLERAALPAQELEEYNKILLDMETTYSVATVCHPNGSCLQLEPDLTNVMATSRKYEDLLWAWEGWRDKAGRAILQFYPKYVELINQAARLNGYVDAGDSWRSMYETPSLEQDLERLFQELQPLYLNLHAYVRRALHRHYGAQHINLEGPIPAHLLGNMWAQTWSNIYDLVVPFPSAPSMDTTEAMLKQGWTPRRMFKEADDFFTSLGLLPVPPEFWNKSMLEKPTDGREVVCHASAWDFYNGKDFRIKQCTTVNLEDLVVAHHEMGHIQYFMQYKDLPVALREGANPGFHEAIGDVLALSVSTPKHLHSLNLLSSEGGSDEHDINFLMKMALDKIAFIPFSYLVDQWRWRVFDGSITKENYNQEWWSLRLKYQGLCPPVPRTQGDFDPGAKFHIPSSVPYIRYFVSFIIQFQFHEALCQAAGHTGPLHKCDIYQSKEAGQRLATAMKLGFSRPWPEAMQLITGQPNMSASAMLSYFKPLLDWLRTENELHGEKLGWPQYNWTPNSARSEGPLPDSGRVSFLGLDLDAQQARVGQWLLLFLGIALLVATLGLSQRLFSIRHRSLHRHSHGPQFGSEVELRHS
Procedure: (§1) At defined incubation times aliquots (10 µl) were taken from the reaction mixtures. Reaction was stopped by addition of formic acid adjusting a final concentration of 0.2% (v/v) formic acid/HPLC-grade water. Samples were analyzed by MALDI-MS (Reflex IV, Bruker) using DHB as matrix.
It is known that ACE-1 generates ANG-1-8 by removal of the last two C-terminal amino acids (His9-Leu10) of ANG-1-10. […] The reaction products were analyzed by MALDI-MS (Figure S7).
Supplementary file pone.0064027.s007.tif: Figure S7 Processing of angiotensin peptides by recombinant ACE-1. […] ACE-1 was incubated with A) ANG-1-10, B) ANG-2-10, C) ANG-3-10, D) ANG-4-10, E) ANG-5-10. Reaction products were analyzed by MALDI-MS after an incubation time of 8 h. MALDI-MS-Signals which were assigned as angiotensin peptides are marked by arrows. (TIF) Click here for additional data file.

[12] = target: recombinant human aminopeptidase N (APN) (Homo sapiens, UniProt P15144); assay: Incubation of angiotensin peptides with recombinant aminopeptidase N (MALDI-MS); conditions: for Cleavage products generated from the substrate by recombinant aminopeptidase N (APN): substrate 10^−5 M in HPLC-grade water, 0.25 µg recombinant human APN per 100 µl, reaction products detected by MALDI-MS
Chain of recombinant human aminopeptidase N (APN) (Homo sapiens, UniProt P15144) (P15144 whole entry): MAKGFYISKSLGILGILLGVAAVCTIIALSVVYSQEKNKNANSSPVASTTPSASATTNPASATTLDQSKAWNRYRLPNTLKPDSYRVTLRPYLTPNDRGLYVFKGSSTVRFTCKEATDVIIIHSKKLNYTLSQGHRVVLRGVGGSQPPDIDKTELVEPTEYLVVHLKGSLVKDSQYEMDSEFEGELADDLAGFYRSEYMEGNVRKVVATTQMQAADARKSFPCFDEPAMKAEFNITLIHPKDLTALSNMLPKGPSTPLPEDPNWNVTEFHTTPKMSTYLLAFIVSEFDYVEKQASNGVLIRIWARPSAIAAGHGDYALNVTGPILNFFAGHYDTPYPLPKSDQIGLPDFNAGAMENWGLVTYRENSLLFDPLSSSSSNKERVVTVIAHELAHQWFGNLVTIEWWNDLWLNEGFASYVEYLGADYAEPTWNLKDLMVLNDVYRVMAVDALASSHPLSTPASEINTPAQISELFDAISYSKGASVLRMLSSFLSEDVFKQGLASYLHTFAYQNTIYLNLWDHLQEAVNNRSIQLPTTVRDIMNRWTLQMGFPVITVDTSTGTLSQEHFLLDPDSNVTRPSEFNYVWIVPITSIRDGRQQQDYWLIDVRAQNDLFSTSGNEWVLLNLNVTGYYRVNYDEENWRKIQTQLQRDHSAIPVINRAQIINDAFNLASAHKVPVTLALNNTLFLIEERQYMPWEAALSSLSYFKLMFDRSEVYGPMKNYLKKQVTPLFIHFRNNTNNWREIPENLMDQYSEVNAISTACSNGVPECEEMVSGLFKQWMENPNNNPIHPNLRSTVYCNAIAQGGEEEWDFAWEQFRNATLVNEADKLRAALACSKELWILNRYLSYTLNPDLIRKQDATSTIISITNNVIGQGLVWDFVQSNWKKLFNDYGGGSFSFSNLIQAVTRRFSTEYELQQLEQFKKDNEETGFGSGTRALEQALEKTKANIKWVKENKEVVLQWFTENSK
Procedure: as §1
APN is a protease that is known to cleave ANG-2-8 between the Arg2-Val3 in vitro [22] and in vivo [23], [24]. Thus it is a potential protease for the generation of ANG-3-10.

[13] = system: APN; assay: in vitro and in vivo; conditions: cited from earlier work
[14] = ANG-1-10 10^−5 M, immobilized human plasma proteins, 200 µM AEBSF, 50 µM antipain, 150 µM bestatin, 100 µM EDTA, SRM-MS after 6 h, mean ± SEM, n = 3
[15] = ANG-1-10 10^−5 M, immobilized human plasma proteins, 200 µM AEBSF, 50 µM antipain, 150 µM bestatin, 10 µM captopril, 100 µM chymostatin, 100 µM EDTA, SRM-MS after 6 h, mean ± SEM, n = 3
[16] = substrate 10^−5 M, immobilized human plasma proteins, 37°C, SRM-MS (LC-ESI-QQQ-MS) / MALDI-MS

RVYIHPFHL
fragment found [1]: ANG-2-8 | cleaved bond [2]: F8-His9 | fragment found [3]: ANG-3-10; also recorded: ANG-4-10; also recorded: ANG-5-10; also recorded: ANG-6-10; also recorded: ANG-2-8, 8 h; also recorded: ANG-3-8, 8 h; also recorded: ANG-4-8, 8 h | fragment found [4]: ANG-3-10, 1 h; also recorded: ANG-4-10, 1 h; also recorded: ANG-5-10, 4 h; also recorded: ANG-6-10, 8 h

CC(C)[C@H](NC(=O)[C@H](CCCNC(=N)N)NC(=O)N[C@@H](Cc1ccccc1)C(=O)O)C(=O)N[C@H](C=O)CCCNC(=N)N [Antipain] ({Phe-CO}-Arg-Val-Arg-aldehyde)
Change of ANG-6-10-generating activity in the presence of inhibitor [5]: slightly inhibited | Change of ANG-2-10-generating activity in the presence of inhibitor ([5]; ANG-1-10 10^−5 M, immobilized human plasma proteins, 50 µM antipain, 150 µM bestatin, 100 µM EDTA, SRM-MS after 6 h, mean ± SEM, n = 3): −0.12±0.023 | Change of ANG-4-10-generating activity in the presence of inhibitor ([5]; ANG-1-10 10^−5 M, immobilized human plasma proteins, 50 µM antipain, SRM-MS after 6 h, mean ± SEM, n = 3): -0.21±0.05 | Change of ANG-3-10-generating activity in the presence of inhibitor [5, 14]: inhibited

C[C@H](CS)C(=O)N1CCC[C@H]1C(=O)O [Captopril]
Change of ANG-6-10-generating activity in the presence of inhibitor [5, 15]: 0.98±0.32

O=C(O)CN(CCN(CC(=O)O)CC(=O)O)CC(=O)O [EDTA]
Change of ANG-3-10-generating activity in the presence of inhibitor [5, 14]: 3.4±0.8

RVYIHPF [ANG-2-8, angiotensin peptide also known as AIII]
Cross reactivity with the anti ANG-1-10 antibody [6]: no cross reactivity

YIHPFHL
cleaved bond [2]: F8-His9 | fragment found [3]: ANG-5-10; also recorded: ANG-6-10 | fragment found [4]: ANG-5-10, 1 h; also recorded: ANG-6-10, 1 h

DRVYIHPFHL [ANG-1-10, angiotensin I]
Reaction products generated from the substrate by immobilized human plasma proteins [7]: A-1-9, ANG-1-8, ANG-1-7, ANG-2-10, ANG-3-10, ANG-4-10, ANG-5-10 and ANG-6-10 | Only reaction products left after 8 h of incubation, mouse plasma [8]: ANG-1-8 | Reaction products generated from the substrate by immobilized mouse plasma proteins [8]: ANG-1-8 (m/z 1046.5), ANG-1-7 (m/z 899.5), ANG-2-10 (m/z 1181.7), ANG-3-10 (m/z 1025.6), ANG-4-10 (m/z 926.5), ANG-5-10 (m/z 763.4) | Reaction products generated from the substrate by non-immobilized human plasma proteins [9]: A-1-9, ANG-1-8, ANG-1-7, ANG-2-10, ANG-3-10, ANG-4-10, ANG-5-10 and ANG-6-10 | Only reaction products left after 8 h of incubation, rat plasma [10]: ANG-1-7, ANG-1-8 and ANG-5-10 | Reaction products generated from the substrate by immobilized rat plasma proteins [10]: ANG-1-8 (m/z 1046.5), ANG-1-7 (m/z 899.5), ANG-2-10 (m/z 1181.7), ANG-3-10 (m/z 1025.6), ANG-4-10 (m/z 926.5), ANG-5-10 (m/z 763.4)

CC(C)C[C@H](NC(=O)[C@@H](NC(=O)N[C@@H](Cc1ccccc1)C(=O)O)[C@@H]1CCN=C(N)N1)C(=O)N[C@H](C=O)Cc1ccccc1 [Chymostatin]
Change of ANG-6-10-generating activity in the presence of inhibitor [5]: 1.30±0.14

VYIHPFHL
cleaved bond [2]: F8-His9 | fragment found [3]: ANG-4-10; also recorded: ANG-5-10; also recorded: ANG-6-10 | fragment found [4]: ANG-4-10, 1 h; also recorded: ANG-6-10, 1 h

HPFHL
not cleaved [4]: not further degraded by APN within 24 h

YIHPFHL [ANG-4-10]
Reaction product generated by recombinant ACE-1 [11]: ANG-4-8 | Cleavage products generated from the substrate by recombinant aminopeptidase N (APN) [12]: IHPFHL; also recorded: HPFHL

CC[C@H](C)[C@H](NC(=O)[C@H](Cc1ccc(O)cc1)NC(=O)[C@@H](NC(=O)[C@H](CCCNC(=N)N)NC(=O)[C@@H](N)CC(=O)O)C(C)C)C(=O)N[C@@H](Cc1cnc[nH]1)C(=O)N1CCC[C@H]1C(=O)N[C@@H](Cc1ccccc1)C(=O)O [ANG-1-8, angiotensin II]
Cleavage products generated from the substrate by recombinant aminopeptidase N (APN) [12]: none

RVYIHPF
cleaved bond [13]: Arg2-Val3

NCCc1ccc(S(=O)(=O)F)cc1 [AEBSF]
Change of ANG-3-10-generating activity in the presence of inhibitor [5, 14]: inhibited

CC(C)C[C@H](NC(=O)[C@@H](O)[C@H](N)Cc1ccccc1)C(=O)O [Bestatin]
Change of ANG-6-10-generating activity in the presence of inhibitor [5, 15]: 0.76±0.14 | Change of ANG-3-10-generating activity in the presence of inhibitor [5, 14]: Higher amounts

IHPFHL
cleaved bond [2]: F8-His9 | fragment found [3]: ANG-6-10 | fragment found [4]: ANG-6-10

HPFHL [ANG-6-10]
Reaction product generated by recombinant ACE-1 [11]: no cleavage product was observed | Stability towards APN ([12]; within 24 h of incubation with recombinant APN, MALDI-MS): not further degraded

VYIHPFHL [ANG-3-10]
Reaction product generated by recombinant ACE-1 [11]: ANG-3-8 | Reaction products generated from the substrate by immobilized human plasma proteins [7, 16]: ANG-4-10, ANG-5-10 and ANG-6-10 | Cleavage products generated from the substrate by recombinant aminopeptidase N (APN) [12]: YIHPFHL; also recorded: HPFHL

RVYIHPFHL [ANG-2-10]
Reaction product generated by recombinant ACE-1 [11]: ANG-2-8 | Further reaction products detected by MALDI-MS after 8 h of incubation ([7]; substrate 10^−5 M, immobilized human plasma proteins, 37°C, MALDI-MS after 8 h): ANG-2-8 (m/z 931.5), ANG-3-8 (m/z 775.4) and ANG-4-8 (m/z 676.3) | Reaction products generated from the substrate by immobilized human plasma proteins [7, 16]: ANG-3-10, ANG-4-10, ANG-5-10 and ANG-6-10 | Cleavage products generated from the substrate by recombinant aminopeptidase N (APN) [12]: VYIHPFHL; also recorded: YIHPFHL; also recorded: IHPFHL; also recorded: HPFHL

IHPFHL [ANG-5-10]
Reaction product generated by recombinant ACE-1 [11]: ANG-5-8 | Reaction products generated from the substrate by immobilized human plasma proteins [7, 16]: ANG-6-10 | Cleavage products generated from the substrate by recombinant aminopeptidase N (APN) [12]: HPFHL
